The values below come from ChEMBL document CHEMBL1155354, “Carbonic anhydrase inhibitors. Inhibition of the Rv1284 and Rv3273 beta-carbonic anhydrases from Mycobacterium tuberculosis with diazenylbenzenesulfonamides” (Bioorg Med Chem Lett, 2009).

What is called Ki is the equilibrium dissociation constant of an inhibitor or competing ligand from its target.

Each structure is given as a SMILES string.

The target in assay [1] is T1, PROBABLE TRANSMEMBRANE CARBONIC ANHYDRASE (CARBONATE DEHYDRATASE) (CARBONIC DEHYDRATASE) (Mycobacterium tuberculosis, UniProt P96878).
T1 sequence (P96878 whole entry): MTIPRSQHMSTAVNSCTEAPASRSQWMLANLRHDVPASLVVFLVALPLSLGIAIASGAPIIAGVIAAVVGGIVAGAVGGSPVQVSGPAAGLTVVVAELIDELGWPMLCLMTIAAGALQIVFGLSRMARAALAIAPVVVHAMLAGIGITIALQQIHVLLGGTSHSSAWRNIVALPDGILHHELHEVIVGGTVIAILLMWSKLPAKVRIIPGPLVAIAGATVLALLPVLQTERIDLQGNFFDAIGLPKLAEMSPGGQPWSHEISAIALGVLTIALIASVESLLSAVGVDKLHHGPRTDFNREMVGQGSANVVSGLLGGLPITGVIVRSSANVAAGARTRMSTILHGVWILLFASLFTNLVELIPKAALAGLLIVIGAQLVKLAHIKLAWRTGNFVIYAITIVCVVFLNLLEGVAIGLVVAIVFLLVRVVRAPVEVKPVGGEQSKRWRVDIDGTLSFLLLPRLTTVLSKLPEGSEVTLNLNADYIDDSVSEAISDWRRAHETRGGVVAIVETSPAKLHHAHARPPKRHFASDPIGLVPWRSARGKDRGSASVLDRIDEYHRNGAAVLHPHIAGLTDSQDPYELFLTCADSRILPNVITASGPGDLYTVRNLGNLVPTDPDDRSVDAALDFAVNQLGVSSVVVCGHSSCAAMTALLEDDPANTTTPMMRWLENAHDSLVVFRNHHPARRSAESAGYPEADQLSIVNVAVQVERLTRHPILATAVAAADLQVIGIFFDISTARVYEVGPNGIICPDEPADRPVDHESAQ
Description: Inhibition of Mycobacterium tuberculosis recombinant carbonic anhydrase Rv3273 by stopped flow CO2 hydration assay

The target of assay [2] is T2, Beta-carbonic anhydrase 1 (Mycobacterium tuberculosis, UniProt P9WPJ7).
T2 sequence (P9WPJ7 whole entry): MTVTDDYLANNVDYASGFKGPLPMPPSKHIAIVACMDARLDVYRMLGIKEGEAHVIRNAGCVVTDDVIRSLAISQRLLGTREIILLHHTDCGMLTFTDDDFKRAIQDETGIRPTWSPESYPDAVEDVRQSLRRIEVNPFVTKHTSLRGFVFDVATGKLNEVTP

The target of a further assay is Carbonic anhydrase 2 (Homo sapiens, UniProt P00918).

Description for Carbonic anhydrase 2: Inhibition of human cloned full length carbonic anhydrase 2 by stopped flow CO2 hydration assay

For `Nc1ccc(S(=O)(=O)NCCc2ccc(S(N)(=O)=O)cc2)cc1`, the Ki in assay [1] was 0.17 µM.

For the molecule `O=S(=O)(O)CNc1ccccc1` [SODIUM PHENYLAMINOMETHANESULFONATE], the Ki in assay [1] was 8.9 µM; in assay [2] it was 8.67 µM.

Consider `NS(=O)(=O)c1ccc(/N=N/c2ccc(O)cc2)cc1`, for which the inhibitory constant (Ki) in assay [1] came to 12.4 µM; in assay [2], 9.27 µM.

`CNc1ccc(/N=N/c2ccc(S(N)(=O)=O)cc2)cc1`: the Ki on Carbonic anhydrase 2 stood at 0.093 µM; in assay [1], 9.18 µM; in assay [2], 7.69 µM.

Regarding `CN(CS(=O)(=O)O)c1ccc(/N=N/c2ccc(S(N)(=O)=O)cc2)cc1`, the inhibition constant Ki in assay [1] amounted to 9.03 µM; in assay [2], 8.71 µM.

On to `CC(=O)Nc1cc2c(O)c(/N=N/c3ccc(S(N)(=O)=O)cc3)c(S(=O)(=O)O)cc2cc1S(=O)(=O)O` [PRONTOCIL], for which the inhibitory constant (Ki) in assay [1] turned out to be 0.148 µM; in assay [2], 0.126 µM.

In assay [1], `NCc1ccc(S(N)(=O)=O)cc1` [MAFENIDE] gave a Ki of 7.33 µM.

With `NS(=O)(=O)c1cccc(/N=N/c2ccc(O)cc2)c1`, the Ki on Carbonic anhydrase 2 was 0.106 µM; in assay [1], 9.23 µM; in assay [2], 8.97 µM.

For `Nc1ccc(S(=O)(=O)NCc2ccc(S(N)(=O)=O)cc2)cc1`, in assay [1], affinity was put at a Ki of 2.21 µM.

Regarding `NS(=O)(=O)c1ccc(/N=N/c2ccc(NCS(=O)(=O)O)cc2)cc1`, the inhibitory constant (Ki) in assay [1] turned out to be 8.9 µM; in assay [2], 6.78 µM.

On to `NS(=O)(=O)c1cccc(/N=N/c2ccc(NCS(=O)(=O)O)cc2)c1`, for which the Ki in assay [1] stood at 9.45 µM; in assay [2] it was 7.51 µM.

Take `CN(CS(=O)(=O)O)c1ccc(/N=N/c2cccc(S(N)(=O)=O)c2)cc1`: the inhibitory constant (Ki) in assay [1] was found to be 7.4 µM; in assay [2], 63 µM.

On to `CN(CS(=O)(=O)O)c1ccccc1` [SODIUM(METHYL(PHENYL)AMINO)METHANESULFONATE], for which the Ki stood at 9.11 µM in assay [1] and 7.86 µM in assay [2].

In the case of `CCN[C@H]1CN(CCCOC)S(=O)(=O)c2sc(S(N)(=O)=O)cc21` [BRINZOLAMIDE], affinity in assay [1] was put at a Ki of 0.201 µM.

`CN(C)c1ccc(/N=N/c2ccc(S(N)(=O)=O)cc2)cc1`: the Ki on Carbonic anhydrase 2 turned out to be 0.638 µM; in assay [1], 30.7 µM; in assay [2], 6.86 µM.

For the molecule `Nc1ccc(/N=N/c2ccc(S(N)(=O)=O)cc2)cc1`, the Ki in assay [1] was determined as 8.78 µM; in assay [2], 7.2 µM.

Turning to `Nc1ccc(/N=N/c2cccc(S(N)(=O)=O)c2)cc1`, the Ki in assay [1] amounted to 8.68 µM; in assay [2], 7 µM.

For `CN(C)c1ccc(/N=N/c2cccc(S(N)(=O)=O)c2)cc1`, the figures for the Ki in assay [1] and in assay [2] were 9.36 µM and 7.54 µM, respectively.
